Values quoted from earlier work as cited in patent US20170165286A1, “COMPOSITIONS AND METHODS FOR TREATING DIABETES AND LIVER DISEASES” (Cempra Pharmaceuticals, Inc., priority 2014, published 2017).

Tests used:
[1] = reported; cited from earlier work
[2] = reportedly; cited from earlier work

| Compound | QT effect [1] | Liver toxicity [2] |
| --- | --- | --- |
| CC[C@H]1OC(=O)[C@H](C)[C@@H](O[C@H]2C[C@@](C)(OC)[C@@H](O)[C@H](C)O2)[C@H](C)[C@@H](O[C@@H]2O[C@H](C)C[C@H](N(C)C)[C@H]2O)[C@](C)(O)C[C@@H](C)CN(C)[C@H](C)[C@@H](O)[C@]1(C)O [azithromycin] | QT positive | – |
| CC[C@H]1OC(=O)[C@H](C)[C@@H](O[C@H]2C[C@@](C)(OC)[C@@H](O)[C@H](C)O2)[C@H](C)[C@@H](O[C@@H]2O[C@H](C)C[C@H](N(C)C)[C@H]2O)[C@](C)(OC)C[C@@H](C)C(=O)[C@H](C)[C@@H](O)[C@]1(C)O [clarithromycin] | QT positive | toxic to the liver |
| CC[C@H]1OC(=O)[C@H](C)C(=O)[C@H](C)[C@@H](O[C@@H]2O[C@H](C)C[C@H](N(C)C)[C@H]2O)[C@](C)(OC)C[C@@H](C)C(=O)[C@H](C)[C@H]2N(CCCCn3cnc(-c4cccnc4)c3)C(=O)O[C@]12C [telithromycin] | QT positive | – |
